In publication PMC10773943, “Molecular cloning and functional analysis of 4-coumarate: CoA ligases from Marchantia paleacea and their roles in lignin and flavanone biosynthesis” (PLOS ONE, 2024):
Each block holds one compound with its values, some of them ahead of it.

What was measured:
Format in all cases: biochemical, Marchantia paleacea
Details in all cases: ATP, MgCl2, 200 mM Tris-HCl (assay: 5 mM ATP, 300 μM CoA, 5 mM MgCl2, pH 7.5, 30°C)
Mp4CL1 [1] = tested on: T1, Mp4CL1; test: HPLC quantification of CoA ester with calibration curve
T1 construct: expressed in E. coli BL21(DE3), purified; from transcriptome SRP078650
From the text: HPLC quantification of CoA ester with calibration curve on Mp4CL1

Mp4CL1 [2] = tested on: T1, Mp4CL1; test: UV absorbance of CoA ester formation at […] nm
Mp4CL1 [3] = tested on: T1, Mp4CL1; test: UV absorbance of CoA ester formation at […] nm; remark: listed apart in the source
Mp4CL1 [4] = tested on: T1, Mp4CL1; test: UV absorbance of CoA ester formation at […] nm; remark: listed apart in the source

Km (Mp4CL1 [2]): 414 ± 95.7 µM
Compound: COc1cc(/C=C/C(=O)O)ccc1O [ferulic acid]

Km (Mp4CL1 [3]): 94 ± 30.9 µM
Compound: O=C(O)/C=C/c1ccc(O)cc1 [p-coumaric acid]

Further lines, the compound ahead of its results:

Compound: O=C(O)CCc1ccc(O)cc1 [dihydro-p-coumaric acid]
Km (Mp4CL1 [1]): 289 ± 36.5 µM

Compound: O=C(O)/C=C/c1ccc(O)c(O)c1 [caffeic acid]
Km (Mp4CL1 [2]): 113 ± 24.3 µM

Compound: O=C(O)/C=C/c1ccccc1 [cinnamic acid]
Km (Mp4CL1 [4]): 115 ± 16.6 µM
